Patent US11180495B2 (Abbisko Therapeutics Co., Ltd., priority 2017, dated 2021)
Where two headings read alike, the source gives them in different places.

Legend:
[1] = system: M-NFS-60 mouse myeloid leukemia lymphocytes; assay: CSF-1R-related cell proliferation experiment (Cell Titer Glo); type: cell-based; details: 72 h, M-NFS-60 cells, 3 days, CTG
Procedure: Functional effects of compounds on cell proliferation were evaluated by using Cell Titer Glo (CTG) study in the present invention. M-NFS-60 mouse myeloid leukemia lymphocytes (cat. No. CCBJ078) from National Institutes For Food and Drug Control were cultured in the incubator under conditions of RPMI 1640 (Gibco, cat. No. 11875-119), 10% fetal bovine serum (Gibco, 10099-141), human 10 ng/mL M-CSF macrophage colony-stimulating factor (R&D, cat. No. MVN0915101), 37° C. and 5% CO2. Since ATP is an index for viable cell metabolism, CTG (Promega, #G7573) reagent is a homogeneous detection method for detecting the number of viable cells in the culture by quantifying ATP. Therefore, compound-mediated inhibition for cell proliferation/survival was evaluated by quantifying ATP in cells, and the specific experimental process was as follows: • 1. The cells were plated into a tissue-culture-medium-treated 96-well plate (Costar #3904) with 5,000 cells/well/80 μL fresh culture medium: • 2. 24 hours later, 10 μL culture medium containing testing compound with 10-fold of final concentration was added to each well; • 3. 10 μL of culture medium containing M-CSF with 10-fold of the final concentration was then added to each well: • 4. dosage effect was evaluated by testing the 3-fold serial dilutions of the compound; • 5. after the cells were incubated for 3 days at 37° C. and 5% CO2, the inhibition on cell survival was quantified after 50 μL of CTG was added and the luminescence assay was performed; • 6. the compound concentration leading to half maximal inhibitory (IC50) and the compound concentration leading to absolute half maximal inhibitory (Absolute IC50) were measured by a plate reader (M1000, Tecan) and a four-parameter curve fit in Graphpad Prism 7. D. CSF-1R-Related Cell Proliferation Experiment

[2] = system: NCI-H1703 human non-small cell lung squamous carcinoma cells; assay: PDGFRA-related cell proliferation experiment (Cell Titer Glo); type: cell-based; details: 72 h, 3 days, CTG, read-out: Cytological experiment PDGFRA IC50
Procedure: Functional effects of compounds on the proliferation of several cell lines were evaluated by Cell Titer Glo (CTG) studies in the present invention, and effects of the compounds on the proliferation of different cells were evaluated to determine the selectivity degree of the compounds. In the study, M-07e human cytomegalic leukemia cells (cat. No. CBP60791) from Nanjing Kebai Biotechnology Co., Ltd. were cultured in an incubator under conditions of RPMI1640 (Gibco, cat. No. 11875-119), 20% fetal bovine serum (Gibco, 10099-141), human 10 ng/mL GM-CSF granulocyte macrophage colony-stimulating factors (R&D, cat. No. 215-GM-010), 37° C. and 5% CO2; and Kasumi-1 human acute myeloblastic leukemia cells (cat. No. CBP60524) were cultured in an incubator under conditions of RPMI1640 (Gibco, cat. No. 11875-119), 20% fetal bovine serum (Gibco, 10099-141), 37° C. and 5% CO2; NCI-H1703 human non-small cell lung squamous carcinoma cells (cat. No. CBP60115) were cultured in an incubator under conditions of RPMI1640 (Gibco, cat. No. 11875-119), 10% fetal bovine serum (Gibco, 10099-141), 37° C. and 5% CO2; and MV-4-11 human acute monocytic leukemia cells (cat. No. CBP60522) were cultured in an incubator under conditions of IMDM (Invitrogen, cat. No. 12440053), 20% fetal bovine serum (Gibco, 10099-141), 37° C. and 5% CO2. Since ATP is an index for viable cell metabolism, CTG (Promega, #G7573) reagent is a homogeneous detection method for detecting the number of viable cells in the culture by quantifying ATP. Therefore, compound-mediated inhibition for cell proliferation/survival was evaluated by quantifying ATP content in cells, and the specific experimental process was as follows.
II) NCI-H1703 Human Non-Small Cell Lung Squamous Carcinoma Cell • 1.

[3] = absolute half maximal inhibitory concentration, read-out: Cytological experiment CSF-1R Absolute IC50
[4] = read-out: Cytological experiment CSF1R IC50

Row | Structure (SMILES) | IC50 [1, 3] | IC50 [1, 4] | IC50 [2] | IC50 ([1]; Lymphocyte, absolute half maximal inhibitory concentration, read-out: Cytological experiment CSF-1R Absolute IC50)
1 | Cc1nc(-c2cnc3n(c2=O)CCCN3C)ccc1Cc1c[nH]c2ncccc12 [Example 14, 3-(5-((1H-pyrrolo[2,3-b]pyridin-3-yl)methyl)-6-methylpyridin-2-yl)-9-methyl-6,7,8,9-tetrahydro-4H-pyrimido[1,2-a]pyrimidin-4-one] | 105 nM | 96.7 nM | > 18000 nM | –
2 | Cc1nc(-c2cnc3n(c2=O)CCCN3C)ccc1Cc1c[nH]c2ncc(O)cc12 [Example 23] | 131 nM | 140 nM | > 6000 nM | –
3 | Cc1nc(-c2cnc3n(c2=O)CCCN3C)ccc1Cc1c[nH]c2ncc(-c3cnn(C)c3)cc12 [Example 18, 9-methyl-3-(6-methyl-5-((5-(1-methyl-1H-pyrazol-4-yl)-1H-pyrrolo[2,3-b]pyridin-3-yl)methyl)pyridin-2-yl)-6,7,8,9-tetrahydro-4H-pyrimido[1,2-a]pyrimidin-4-one] | 4.9 nM | 5 nM | 447 nM | –
4 | COc1cnc2[nH]cc(Cc3ccc(-c4cnc5n(c4=O)CCCN5C)nc3C)c2c1 [Example 22, 3-(5-((5-methoxy-1H-pyrrolo[2,3-b]pyridin-3-yl)methyl)-6-methylpyridin-2-yl)-9-methyl-6,7,8,9-tetrahydro-4H-pyrimido[1,2-a]pyrimidin-4-one] | 39.1 nM | 48 nM | > 2000 nM | –
5 | Cc1cnc2[nH]cc(Cc3ccc(-c4cnc5n(c4=O)CCCN5C)nc3C)c2c1 [Example 21, 9-methyl-3-(6-methyl-5-((5-methyl-1H-pyrrolo[2,3-b]pyridin-3-yl)methyl)pyridin-2-yl)-6,7,8,9-tetrahydro-4H-pyrimido[1,2-a]pyrimidin-4-one] | 45.6 nM | 54 nM | > 18000 nM | –
6 | Cc1nc(-c2cnc(NC(C)C)[nH]c2=O)ccc1Cc1c[nH]c2ncc(F)cc12 [Example 5, 5-(5-((5-fluoro-1H-pyrrolo[2,3-b]pyridin-3-yl)methyl)-6-methylpyridin-2-yl)-2-(isopropylamino)pyrimidin-4(3H)-one] | 47.9 nM | 77.9 nM | 1820 nM | –
7 | CCN1CCCn2c1ncc(-c1ccc(Cc3c[nH]c4ncc(-c5cnn(C)c5)cc34)c(C)n1)c2=O [Example 17] | – | 6.3 nM | 57.2 nM | 5 nM
8 | CCN1CCCn2c1ncc(-c1ccc(Cc3c[nH]c4ncc(Cl)cc34)c(C)n1)c2=O [Example 16, 3-(5-((5-chloro-1H-pyrrolo[2,3-b]pyridin-3-yl)methyl)-6-methylpyridin-2-yl)-9-ethyl-6,7,8,9-tetrahydro-4H-pyrimido[1,2-a]pyrimidin-4-one] | 71.8 nM | 68.6 nM | 1030 nM | –
9 | Cc1nc(-c2cnc3n(c2=O)CCCN3C)ccc1Cc1c[nH]c2ncc(F)cc12 [Example 20, 3-(5-((5-fluoro-1H-pyrrolo[2,3-b]pyridin-3-yl)methyl)-6-methylpyridin-2-yl)-9-methyl-6,7,8,9-tetrahydro-4H-pyrimido[1,2-a]pyrimidin-4-one] | 106 nM | 92.2 nM | > 18000 nM | –
10 | Cc1nc(-c2cnc(NC(C)C)n(C)c2=O)ccc1Cc1c[nH]c2ncccc12 [Example 7, 5-(5-((1H-pyrrolo[2,3-b]pyridin-3-yl)methyl)-6-methylpyridin-2-yl)-2-(isopropylamino)-3-methylpyrimidin-4(3H)-one] | 33.7 nM | 39.7 nM | > 6000 nM | –
11 | Cc1nc(-c2cnc3n(c2=O)CCCN3C)ccc1Cc1c[nH]c2ncc(Cl)cc12 [Example 13, 3-(5-((5-chloro-1H-pyrrolo[2,3-b]pyridin-3-yl)methyl)-6-methylpyridin-2-yl)-9-methyl-6,7,8,9-tetrahydro-4H-pyrimido[1,2-a]pyrimidin-4-one] | 38.6 nM | 46.8 nM | > 6000 nM | –
12 | Cc1nc(-c2cnc3n(c2=O)CCC(C)N3C)ccc1Cc1c[nH]c2ncc(Cl)cc12 (stereo not drawn) [Example 15, 3-(5-((5-chloro-1H-pyrrolo[2,3-b]pyridin-3-yl)methyl)-6-methylpyridin-2-yl)-8,9-dimethyl-6,7,8,9-tetrahydro-4H-pyrimido[1,2-a]pyrimidin-4-one] | 83.3 nM | 91.3 nM | > 2000 nM | –
